The nature of the series: solubility in water (analytical studies). The class given is physicochemical. Particulars: compared with the new polymorphic hydrochloride salts.

On to `Cc1cc2c(s1)Nc1ccccc1N=C2N1CCN(C)CC1` [olanzapine base, 2-methyl-4-(4-methylpiperazin-1-yl)-10H-thieno-[2,3-b][1,5]-benzodiazepine], for which the solubility in water result was “significantly lower”.

The values are drawn from US7951798B2, “Polymorphs of olanzapine hydrochloride” (Egis Hyogyszergyar Nyrt., priority 2003, dated 2011).
